Measured values published in patent US8445496B2, “Crystalline forms of 4-[(2,4-dichloro-5-methoxyphenyl)amino]-6-methoxy-7-[3-(4-methyl-1-piperazinyl)propoxy]-3-quinolinecarbonitrile and methods of preparing the same” (Wyeth LLC, priority 2005, dated 2013).
≈ marks a conversion by molar mass, not a printed value. Entries after “also recorded” stand apart in the source; their conditions may differ.

Key:
[1] = Solubility in water and formulation vehicles
[2] = Conversion of crystal form on treatment with water; format: physicochemical; conditions: for form conversion in heated water: water at 90° C. or 95° C.
Protocol: Forms II, III, IV and Form VI can all be transformed into Form I by treatment with water, e.g. by heating in water. The water may be at room temperature. The water may be heated to at least about 90° C., and as high as at least about 95° C.
Form V is the anhydrous form, producing substantially Pattern E in FIGS. 1 and 8 when scanned by XRD, and has the highest transition temperature of all the polymorphic forms, i.e., about 148° C. It is also readily converted to Form I by treatment with heated water. The water is heated to at least about 90° C., and more preferably is heated to at least about 95° C. […] This hydrated form is different from either Form I or V, as shown by the XRD scan in FIG. 4.
FIG. 3. This is a differential scanning calorimeter (DSC) plot and a theromogravimetric analysis (TGA) plot of Form V after suspension in water for two months and ten days at room temperature.

[3] = Solid-state stability on exposure to light, humidity and heat (XRD and HPLC; water loss); format: physicochemical
[4] = Hygroscopicity by dynamic vapor sorption; format: physicochemical; conditions: 0% to 90% RH, monohydrate
Protocol: The hydroscopicity of the anhydrous Form V and the hydrated forms was determined using dyanamic vapor sorption, including the plot for Form I shown in FIG. 2. This was performed under the following conditions. RH was set at 0%, 30%, 52.5%, 75% and 90%, with the sample exposed for 3 hours at each RH for two full cycles.

physchem = conditions: Table 4, (batch size 95, 50, 120, 54, 18.5, 550 g)
[5] = Table 4, (batch size 95, 50, 120, 54, 18.5, 550 g), listed as Pattern D

With `COc1cc(Nc2c(C#N)cnc3cc(OCCCN4CCN(C)CC4)c(OC)cc23)c(Cl)cc1Cl` [Form IV, 4-[(2,4-dichloro-5-methoxyphenyl)amino]-6-methoxy-7-[3-(4-methyl-1-piperazinyl)propoxy]-3-quinolinecarbonitrile] the solubility ([1]; 2% Tween80/0.5% MC 0.06% acetic acid, aqueous with cosolvent or surfactant or cyclodextrin, Solubility, Table 4, (batch size 95, 50, 120, 54, 18.5, 550 g)) was 3500 µg/mL (≈ 6600 µM), the solubility ([1]; 2% Tween 80/03% MC, aqueous with cosolvent or surfactant or cyclodextrin, Solubility, Table 4, (batch size 95, 50, 120, 54, 18.5, 550 g)) was 70 µg/mL (≈ 132 µM) and the “Solubility, 2% Tween80/0.5% MC 0.06% acetic acid” value [1, 5] was 2.68 (pH 5.2) mg/mL. The “Solubility, 2% Tween 80/03% MC” value [1, 5] was 0.06 (pH 7.8) mg/mL and the “form conversion in heated water” value ([2]; listed as D) was “Converts to “I” in 90 °C”.

With `COc1cc(Nc2c(C#N)cnc3cc(OCCCN4CCN(C)CC4)c(OC)cc23)c(Cl)cc1Cl` [Form V, 4-[(2,4-dichloro-5-methoxyphenyl)amino]-6-methoxy-7-[3-(4-methyl-1-piperazinyl)propoxy]-3-quinolinecarbonitrile] the “form change in water at room temperature” value ([2]; suspended in water at room temperature, 2 months (two months and ten days), DSC, TGA, XRD) was “converted into a hydrated Form II; also recorded: hydrated to a metastable hydrate crystal form” and the “form conversion in heated water” value [2] was “Converts to “I” in 95 °C”.

With `COc1cc(Nc2c(C#N)cnc3cc(OCCCN4CCN(C)CC4)c(OC)cc23)c(Cl)cc1Cl` [Form II, 4-[(2,4-dichloro-5-methoxyphenyl)amino]-6-methoxy-7-[3-(4-methyl-1-piperazinyl)propoxy]-3-quinolinecarbonitrile] the “form conversion in heated water” value ([2]; listed as B) was “Converts to “I” in 95 °C”.

In the case of `COc1cc(Nc2c(C#N)cnc3cc(OCCCN4CCN(C)CC4)c(OC)cc23)c(Cl)cc1Cl` [4-[(2,4-dichloro-5-methoxyphenyl)amino]-6-methoxy-7-[3-(4-methyl-1-piperazinyl)propoxy]-3-quinolinecarbonitrile], the “solubility enhancement with about 2% Tween80” value ([1]; about 2% Tween80) is reported as “about 100 fold”, the solubility ([1]; about 2% Tween80, aqueous with cosolvent or surfactant or cyclodextrin, solubility with addition of about 2% Tween80, about 2% Tween80 (detergent)) is reported as 100 to 400 µg/mL (≈ 189 to 754 µM) and the solubility ([1]; aqueous with cosolvent or surfactant or cyclodextrin, solubility with addition of about 0.06% acetic acid (in-situ acetate salt vehicle), about 2% Tween80 plus about 0.06% acetic acid) is reported as 3000 to 4000 µg/mL. The solubility ([1]; de-ionized water, pH 7.2, water, solubility in de-ionized water, partially ionized, resulting pH 7.2) was 1.8 µg/mL (≈ 3.39 µM), the “solubility enhancement with about 0.06% acetic acid” value ([1]; in-situ acetate salt vehicle) was about 1000 fold and the solubility ([1]; pH 8, aqueous buffer, intrinsic (neutral form) solubility, pH 8.0) was about 0.06 µg/mL (≈ 0.113 µM). The solubility ([1]; stomach acid, simulated gastric fluid, solubility in stomach acid) was over 200000 µg/mL.

In the case of `CO.COc1cc(Nc2c(C#N)cnc3cc(OCCCN4CCN(C)CC4)c(OC)cc23)c(Cl)cc1Cl` [Form VI, 4-[(2,4-dichloro-5-methoxyphenyl)amino]-6-methoxy-7-[3-(4-methyl-1-piperazinyl)propoxy]-3-quinolinecarbonitrile methanolate], the “form conversion in heated water” value [2] is reported as “Converts to “I” in 95 °C”.

With `CC(C)O.COc1cc(Nc2c(C#N)cnc3cc(OCCCN4CCN(C)CC4)c(OC)cc23)c(Cl)cc1Cl` [Form III, 4-[(2,4-dichloro-5-methoxyphenyl)amino]-6-methoxy-7-[3-(4-methyl-1-piperazinyl)propoxy]-3-quinolinecarbonitrile monoisopropyl alcoholate] the “form conversion in heated water” value [2] was “Converts to “I” in 95 °C”.

For `COc1cc(Nc2c(C#N)cnc3cc(OCCCN4CCN(C)CC4)c(OC)cc23)c(Cl)cc1Cl.O` [Form I, 4-[(2,4-dichloro-5-methoxyphenyl)amino]-6-methoxy-7-[3-(4-methyl-1-piperazinyl)propoxy]-3-quinolinecarbonitrile monohydrate], the “Solubility, 2% Tween80/0.5% MC 0.06% acetic acid” value ([1]; Table 4, (batch size 95, 50, 120, 54, 18.5, 550 g), listed as Pattern A, monohydrate) was 4.25 (pH 5.7) mg/mL, the “loss of water at 0% relative humidity” value ([3]; 0% relative humidity for 10 days) was “does not lose water” and the “stability to humidity (XRD and HPLC)” value ([3]; 75% humidity at 40° C. for 3 months) was “substantially pure and physically unchanged”. For the same molecule, the “stability to heat (XRD and HPLC)” value ([3]; 90° C. for 2 weeks) was “substantially pure and physically unchanged”, the “stability to light (XRD and HPLC)” value ([3]; 510 foot-candles (~5490 lux) light for two weeks) was “substantially pure and physically unchanged” and the “loss of water on heating” value ([3]; heated to 90° C. for over 100 hours) was “does not lose water”. For the same molecule, the hygroscopicity [4] was “not hygroscopic; also recorded: non-hydroscopic”, the solubility (physchem; aqueous with cosolvent or surfactant or cyclodextrin, 2% Tween80/0.5% MC 0.06% acetic acid) was 4000 µg/mL and the solubility (physchem; pH 7.2, water, Water) was 1.8 µg/mL.
